Data published in US20230312478A1, “HERBICIDAL COMPOUNDS” (SYNGENTA CROP PROTECTION AG, priority 2020, published 2023).

Columns and labels:
Type in all cases: in vivo
Conditions in all cases: 250 g/ha, evaluated visually after 13 days, scale 0-5
[1] = test system: Abutilon theophrasti (ABUTH); test: Herbicidal efficacy, application pre-emergence; design: key: 5 = total damage to plant; 0 = no damage to plant
Description: (§1) Seeds of a variety of test species [Ipomoea hederacea (IPOHE); Zea mays (ZEAMX); Echinochloa crus-galli (ECHCG); Setaria faberi (SETFA); Abutilon theophrasti (ABUTH); Amaranthus retroflexus (AMARE)] were sown in standard sterilised soil in pots. After cultivation for one day (pre-emergence) or after 8 days cultivation (post-emergence) under controlled conditions in a glasshouse (at 24/16° C., day/night; 14 hours light; 65 % humidity), the plants were sprayed with an aqueous spray solution derived from the formulation of the technical active ingredient in acetone / water (50:50) solution containing 0.5% Tween 20 (polyoxyethelyene sorbitan monolaurate, CAS RN 9005-64-5), subsequently diluted in water, and sprayed to give the stated application rate.
(§2) The test plants were then grown under controlled conditions in a glasshouse (at 24/16° C., day/night; 14 hours light; 65 % humidity) and watered twice daily.
(§3) After 13 days for pre- and post-emergence, the test was evaluated visually for percentage phytotoxicity to the plant (where 5 = total damage to plant; 0 = no damage to plant).

[2] = test system: Amaranthus retroflexus (AMARE); test: Herbicidal efficacy, application pre-emergence; design: key: 5 = total damage to plant; 0 = no damage to plant
Description: as §1, §2, §3

[3] = test system: Echinochloa crus-galli (ECHCG); test: Herbicidal efficacy, application pre-emergence; design: key: 5 = total damage to plant; 0 = no damage to plant
Description: as §1, §2, §3

[4] = test system: Ipomoea hederacea (IPOHE); test: Herbicidal efficacy, application pre-emergence; design: key: 5 = total damage to plant; 0 = no damage to plant
Description: as §1, §2, §3

Setaria faberi (SETFA) [5] = test: Herbicidal efficacy, application pre-emergence; design: key: 5 = total damage to plant; 0 = no damage to plant
Description: as §1, §2, §3

Zea mays (ZEAMX) [6] = test: Herbicidal efficacy, application pre-emergence
Description: as §1, §2, §3

[7] = test system: Amaranthus retroflexus (AMARE); test: Herbicidal efficacy, application post-emergence
Description: as §1, §2, §3

[8] = test system: Echinochloa crus-galli (ECHCG); test: Herbicidal efficacy, application post-emergence
Description: as §1, §2, §3

[9] = test system: Ipomoea hederacea (IPOHE); test: Herbicidal efficacy, application post-emergence
Description: as §1, §2, §3

Setaria faberi (SETFA) [10] = test: Herbicidal efficacy, application post-emergence
Description: as §1, §2, §3

Zea mays (ZEAMX) [11] = test: Herbicidal efficacy, application post-emergence
Description: as §1, §2, §3

[12] = test system: Abutilon theophrasti (ABUTH); test: Herbicidal efficacy, application post-emergence; design: key: 5 = total damage to plant; 0 = no damage to plant
Description: as §1, §2, §3

SMILES: Cc1c(F)cccc1NC(=O)C1C(=O)N(C)CC1c1cc(C)n(C(F)F)n1 (stereo not drawn) [Compound 9, 4-[1-(difluoromethyl)-5-methyl-pyrazol-3-yl]-N-(3-fluoro-2-methyl-phenyl)-1-methyl-2-oxo-pyrrolidine-3-carboxamide]
- phytotoxicity to the plant, ABUTH [1]: 1
- phytotoxicity to the plant, AMARE [2]: 1
- phytotoxicity to the plant, ECHCG [3]: 5
- phytotoxicity to the plant, IPOHE [4]: 1
- phytotoxicity to the plant, SETFA (Setaria faberi (SETFA) [5]): 5
- phytotoxicity to the plant, ZEAMX (Zea mays (ZEAMX) [6]): 3
- phytotoxicity to the plant, AMARE [7]: 3
- phytotoxicity to the plant, ECHCG [8]: 4
- phytotoxicity to the plant, IPOHE [9]: 3
- phytotoxicity to the plant, SETFA (Setaria faberi (SETFA) [10]): 4
- phytotoxicity to the plant, ZEAMX (Zea mays (ZEAMX) [11]): 3
- phytotoxicity to the plant, ABUTH [12]: 0

SMILES: CCc1cc(C2CN(C)C(=O)C2C(=O)Nc2cccc(F)c2C)nn1C(F)F (stereo not drawn) [Compound 10, 4-[1-(difluoromethyl)-5-ethyl-pyrazol-3-yl]-N-(3-fluoro-2-methylphenyl)-1-methyl-2-oxo-pyrrolidine-3-carboxamide]
- phytotoxicity to the plant, ABUTH [1]: 2
- phytotoxicity to the plant, AMARE [2]: 1
- phytotoxicity to the plant, ECHCG [3]: 5
- phytotoxicity to the plant, IPOHE [4]: 2
- phytotoxicity to the plant, SETFA (Setaria faberi (SETFA) [5]): 5
- phytotoxicity to the plant, ZEAMX (Zea mays (ZEAMX) [6]): 4
- phytotoxicity to the plant, AMARE [7]: 1
- phytotoxicity to the plant, ECHCG [8]: 4
- phytotoxicity to the plant, IPOHE [9]: 4
- phytotoxicity to the plant, SETFA (Setaria faberi (SETFA) [10]): 4
- phytotoxicity to the plant, ZEAMX (Zea mays (ZEAMX) [11]): 4
- phytotoxicity to the plant, ABUTH [12]: 0

SMILES: Cc1cc(C2CN(C)C(=O)C2C(=O)Nc2cccc(F)c2F)nn1C(F)F (stereo not drawn) [Compound 33, 4-[1-(difluoromethyl)-5-methyl-pyrazol-3-yl]-N-(2,3-difluorophenyl)-1-methyl-2-oxo-pyrrolidine-3-carboxamide]
- phytotoxicity to the plant, ABUTH [1]: 1
- phytotoxicity to the plant, AMARE [2]: 2
- phytotoxicity to the plant, ECHCG [3]: 5
- phytotoxicity to the plant, IPOHE [4]: 1
- phytotoxicity to the plant, SETFA (Setaria faberi (SETFA) [5]): 5
- phytotoxicity to the plant, ZEAMX (Zea mays (ZEAMX) [6]): 4
- phytotoxicity to the plant, AMARE [7]: 2
- phytotoxicity to the plant, ECHCG [8]: 4
- phytotoxicity to the plant, IPOHE [9]: 4
- phytotoxicity to the plant, SETFA (Setaria faberi (SETFA) [10]): 4
- phytotoxicity to the plant, ZEAMX (Zea mays (ZEAMX) [11]): 3
- phytotoxicity to the plant, ABUTH [12]: 1

SMILES: CCc1cc(C2CN(C)C(=S)C2C(=O)Nc2cccc(F)c2F)nn1C(F)F (stereo not drawn) [Compound 38, 4-[1-(difluoromethyl)-5-ethyl-pyrazol-3-yl]-N-(2,3-difluorophenyl)-1-methyl-2-thioxo-pyrrolidine-3-carboxamide]
- phytotoxicity to the plant, ABUTH [1]: 0
- phytotoxicity to the plant, AMARE [2]: 0
- phytotoxicity to the plant, ECHCG [3]: 5
- phytotoxicity to the plant, IPOHE [4]: 2
- phytotoxicity to the plant, SETFA (Setaria faberi (SETFA) [5]): 5
- phytotoxicity to the plant, ZEAMX (Zea mays (ZEAMX) [6]): 4
- phytotoxicity to the plant, AMARE [7]: 1
- phytotoxicity to the plant, ECHCG [8]: 4
- phytotoxicity to the plant, IPOHE [9]: 4
- phytotoxicity to the plant, SETFA (Setaria faberi (SETFA) [10]): 4
- phytotoxicity to the plant, ZEAMX (Zea mays (ZEAMX) [11]): 3
- phytotoxicity to the plant, ABUTH [12]: 0

SMILES: Cc1cc(C2CN(C)C(=O)C2C(=O)Nc2ccc(F)cc2F)nn1C(F)F (stereo not drawn) [Compound 57, 4-[1-(difluoromethyl)-5-methyl-pyrazol-3-yl]-N-(2,4-difluorophenyl)-1-methyl-2-oxo-pyrrolidine-3-carboxamide]
- phytotoxicity to the plant, ABUTH [1]: 1
- phytotoxicity to the plant, AMARE [2]: 1
- phytotoxicity to the plant, ECHCG [3]: 5
- phytotoxicity to the plant, IPOHE [4]: 1
- phytotoxicity to the plant, SETFA (Setaria faberi (SETFA) [5]): 5
- phytotoxicity to the plant, ZEAMX (Zea mays (ZEAMX) [6]): 2
- phytotoxicity to the plant, AMARE [7]: 1
- phytotoxicity to the plant, ECHCG [8]: 4
- phytotoxicity to the plant, IPOHE [9]: 3
- phytotoxicity to the plant, SETFA (Setaria faberi (SETFA) [10]): 4
- phytotoxicity to the plant, ZEAMX (Zea mays (ZEAMX) [11]): 2
- phytotoxicity to the plant, ABUTH [12]: 1

SMILES: CCc1cc(C2CN(C)C(=O)C2C(=O)Nc2ccc(F)cc2F)nn1C(F)F (stereo not drawn) [Compound 58, 4-[1-(difluoromethyl)-5-ethyl-pyrazol-3-yl]-N-(2,4-difluorophenyl)-1-methyl-2-oxo-pyrrolidine-3-carboxamide]
- phytotoxicity to the plant, ABUTH [1]: 0
- phytotoxicity to the plant, AMARE [2]: 0
- phytotoxicity to the plant, ECHCG [3]: 5
- phytotoxicity to the plant, IPOHE [4]: 1
- phytotoxicity to the plant, SETFA (Setaria faberi (SETFA) [5]): 5
- phytotoxicity to the plant, ZEAMX (Zea mays (ZEAMX) [6]): 3
- phytotoxicity to the plant, AMARE [7]: 1
- phytotoxicity to the plant, ECHCG [8]: 4
- phytotoxicity to the plant, IPOHE [9]: 3
- phytotoxicity to the plant, SETFA (Setaria faberi (SETFA) [10]): 4
- phytotoxicity to the plant, ZEAMX (Zea mays (ZEAMX) [11]): 2
- phytotoxicity to the plant, ABUTH [12]: 0

SMILES: Cc1c(Br)c(C2CN(C)C(=O)C2C(=O)Nc2ccc(F)cc2F)nn1C(F)F (stereo not drawn) [Compound 59, 4-[4-bromo-1-(difluoromethyl)-5-methyl-pyrazol-3-yl]-N-(2,4-difluorophenyl)-1-methyl-2-oxo-pyrrolidine-3-carboxamide]
- phytotoxicity to the plant, ABUTH [1]: 1
- phytotoxicity to the plant, AMARE [2]: 0
- phytotoxicity to the plant, ECHCG [3]: 5
- phytotoxicity to the plant, IPOHE [4]: 0
- phytotoxicity to the plant, SETFA (Setaria faberi (SETFA) [5]): 5
- phytotoxicity to the plant, ZEAMX (Zea mays (ZEAMX) [6]): 1
- phytotoxicity to the plant, AMARE [7]: 1
- phytotoxicity to the plant, ECHCG [8]: 4
- phytotoxicity to the plant, IPOHE [9]: 1
- phytotoxicity to the plant, SETFA (Setaria faberi (SETFA) [10]): 4
- phytotoxicity to the plant, ZEAMX (Zea mays (ZEAMX) [11]): 3
- phytotoxicity to the plant, ABUTH [12]: 0

SMILES: Cc1cc(C2CN(C)C(=S)C2C(=O)Nc2ccc(F)cc2F)nn1C(F)F (stereo not drawn) [Compound 61, 4-[1-(difluoromethyl)-5-methyl-pyrazol-3-yl]-N-(2,4-difluorophenyl)-1-methyl-2-thioxo-pyrrolidine-3-carboxamide]
- phytotoxicity to the plant, ABUTH [1]: 0
- phytotoxicity to the plant, AMARE [2]: 2
- phytotoxicity to the plant, ECHCG [3]: 5
- phytotoxicity to the plant, IPOHE [4]: 0
- phytotoxicity to the plant, SETFA (Setaria faberi (SETFA) [5]): 5
- phytotoxicity to the plant, ZEAMX (Zea mays (ZEAMX) [6]): 1
- phytotoxicity to the plant, AMARE [7]: 1
- phytotoxicity to the plant, ECHCG [8]: 4
- phytotoxicity to the plant, IPOHE [9]: 1
- phytotoxicity to the plant, SETFA (Setaria faberi (SETFA) [10]): 3
- phytotoxicity to the plant, ZEAMX (Zea mays (ZEAMX) [11]): 2
- phytotoxicity to the plant, ABUTH [12]: 0

SMILES: CCc1cc(C2CN(C)C(=S)C2C(=O)Nc2ccc(F)cc2F)nn1C(F)F (stereo not drawn) [Compound 62, 4-[1-(difluoromethyl)-5-ethyl-pyrazol-3-yl]-N-(2,4-difluorophenyl)-1-methyl-2-thioxo-pyrrolidine-3-carboxamide]
- phytotoxicity to the plant, ABUTH [1]: 0
- phytotoxicity to the plant, AMARE [2]: 0
- phytotoxicity to the plant, ECHCG [3]: 5
- phytotoxicity to the plant, IPOHE [4]: 0
- phytotoxicity to the plant, SETFA (Setaria faberi (SETFA) [5]): 5
- phytotoxicity to the plant, ZEAMX (Zea mays (ZEAMX) [6]): 2
- phytotoxicity to the plant, AMARE [7]: 1
- phytotoxicity to the plant, ECHCG [8]: 4
- phytotoxicity to the plant, IPOHE [9]: 1
- phytotoxicity to the plant, SETFA (Setaria faberi (SETFA) [10]): 4
- phytotoxicity to the plant, ZEAMX (Zea mays (ZEAMX) [11]): 1
- phytotoxicity to the plant, ABUTH [12]: 1

SMILES: Cc1cc(C2CN(C)C(=O)C2C(=O)Nc2ccc(F)nc2F)nn1C(F)F (stereo not drawn) [Compound 81, 4-[1-(difluoromethyl)-5-methyl-pyrazol-3-yl]-N-(2,6-difluoro-3-pyridyl)-1-methyl-2-oxo-pyrrolidine-3-carboxamide]
- phytotoxicity to the plant, ABUTH [1]: 0
- phytotoxicity to the plant, AMARE [2]: 0
- phytotoxicity to the plant, ECHCG [3]: 5
- phytotoxicity to the plant, IPOHE [4]: 2
- phytotoxicity to the plant, SETFA (Setaria faberi (SETFA) [5]): 5
- phytotoxicity to the plant, ZEAMX (Zea mays (ZEAMX) [6]): 2
- phytotoxicity to the plant, AMARE [7]: 2
- phytotoxicity to the plant, ECHCG [8]: 4
- phytotoxicity to the plant, IPOHE [9]: 1
- phytotoxicity to the plant, SETFA (Setaria faberi (SETFA) [10]): 4
- phytotoxicity to the plant, ZEAMX (Zea mays (ZEAMX) [11]): 4
- phytotoxicity to the plant, ABUTH [12]: 0

SMILES: CCc1cc(C2CN(C)C(=O)C2C(=O)Nc2ccc(F)nc2F)nn1C(F)F (stereo not drawn) [Compound 82, 4-[1-(difluoromethyl)-5-ethyl-pyrazol-3-yl]-N-(2,6-difluoro-3-pyridyl)-1-methyl-2-oxo-pyrrolidine-3-carboxamide]
- phytotoxicity to the plant, ABUTH [1]: 1
- phytotoxicity to the plant, AMARE [2]: 1
- phytotoxicity to the plant, ECHCG [3]: 5
- phytotoxicity to the plant, IPOHE [4]: 3
- phytotoxicity to the plant, SETFA (Setaria faberi (SETFA) [5]): 5
- phytotoxicity to the plant, ZEAMX (Zea mays (ZEAMX) [6]): 3
- phytotoxicity to the plant, AMARE [7]: 1
- phytotoxicity to the plant, ECHCG [8]: 4
- phytotoxicity to the plant, IPOHE [9]: 4
- phytotoxicity to the plant, SETFA (Setaria faberi (SETFA) [10]): 4
- phytotoxicity to the plant, ZEAMX (Zea mays (ZEAMX) [11]): 4
- phytotoxicity to the plant, ABUTH [12]: 1
